From patent publication US20210228463A1, “COMPOSITION FOR FAT FORMATION INHIBITION AND BODY FAT REDUCTION, CONTAINING HYDRANGENOL AS ACTIVE INGREDIENT” (COSMAX BIO CO., LTD., priority 2019, published 2021)

Experiments:
AMPK = experiment: Expression of p-AMPK protein in adipose and liver tissues by HG; type: in vivo, mice; conditions: HG-treated group, Western blotting, FIG. 18
Experimental: To analyze in vivo anti-obesity efficacy of HG, animal models of obesity were prepared. 8-week-old male C57BL/6N mice (SPF grade, 20±2 g, Orient Bio) were set into 7 groups as follows, and 10 mice per each group were tested: as normal control groups, normal mice (con) with no high fat diet and no administration, and obese mice (HFD) with induction of obesity by 30% high fat diet and no administration, and as a positive control group, obese mice with oral administration of orlistat which is an anti-obesity agent. As experimental groups, obese mice with oral administration of HG of 20 mg/kg, 40 mg/kg, or 80 mg/kg, and normal mice with oral administration of HG of 80 mg/kg were used. Mice were administered with HG at the same time with induction of obesity, and HG was administered for 5 days per week for 12 weeks. A dark: light cycle was maintained at intervals of 12 hours: 12 hours, and mice were allowed to free access to water. […]
Specifically, adipose and liver tissues were mixed with a protein extraction solution, homogenized using a tissue homogenizer, and then centrifuged at 4° C., 15,000 rpm for 30 minutes to obtain a supernatant, and then a standard curve was created using the Bradford method to quantify protein. […]

white adipocytes = experiment: Adipocyte size-reducing effects of HG; type: in vivo, mice; conditions: epididymal fat, HG administered; FIG. 16
Experimental: To analyze in vivo anti-obesity efficacy of HG, animal models of obesity were prepared. 8-week-old male C57BL/6N mice (SPF grade, 20±2 g, Orient Bio) were set into 7 groups as follows, and 10 mice per each group were tested: as normal control groups, normal mice (con) with no high fat diet and no administration, and obese mice (HFD) with induction of obesity by 30% high fat diet and no administration, and as a positive control group, obese mice with oral administration of orlistat which is an anti-obesity agent. As experimental groups, obese mice with oral administration of HG of 20 mg/kg, 40 mg/kg, or 80 mg/kg, and normal mice with oral administration of HG of 80 mg/kg were used. Mice were administered with HG at the same time with induction of obesity, and HG was administered for 5 days per week for 12 weeks. A dark: light cycle was maintained at intervals of 12 hours: 12 hours, and mice were allowed to free access to water.
For histological analysis, the epididymal fat tissues of mice were fixed in 4% paraformalin. Dehydration was performed several times through graded alcohol series and washing, and each tissue was embedded in paraffin. Each tissue section was cut at a thickness of 4 μm, and stained with hematoxylin and eosin. In order to examine the size of white adipocytes, the adipocyte area of each section was measured with cellSence software (Olympus Co., USA). […]

[1] = Changes of blood triglyceride and blood cholesterol by WHS; type: in vivo; conditions: blood, obese mice (HFD) + oral orlistat
Experimental: (§1) To analyze in vivo anti-obesity efficacy of WHS, animal models of obesity were first prepared. 8-week-old male C57BL/6N mice (specific-pathogen-free (SPF) grade, 20±2 g, Orient Bio) were set into 7 groups as follows, and 10 mice per each group were tested: as normal control groups, normal mice (con) with no high fat diet and no administration, and obese mice (HFD) with induction of obesity by 30% high fat diet and no administration, and as a positive control group, obese mice with oral administration of orlistat which is an anti-obesity agent. As experimental groups, obese mice with oral administration of WHS of 75 mg/kg, 150 mg/kg, or 300 mg/kg, and normal mice with oral administration of WHS of 300 mg/kg were used. Further, experiments were performed by dividing mice into those which were administered with WHS for 12 weeks at the same time with induction of obesity, and those which were administered with WHS after induction of obesity for 10 weeks. WHS was orally administered for 5 days per week during the administration period. A dark: light cycle was maintained at intervals of 12 hours: 12 hours, and mice were allowed to free access to water. To analyze the effects of WHS on blood triglyceride and blood cholesterol, a hematological-biochemical test of the WHS-administered group with induction of obesity was performed using a biochemical analyzer (AU480 Chemistry Analyzer, Beckman coulter, Calif., USA).

[2] = Body weight- and fat-reducing effects of WHS in obese mice; type: in vivo; conditions: obese mice (HFD)
Experimental: as §1, with “water. […] In addition, images of a fat distribution and body fat contents of mice of each experimental group were measured by dual-energy X-ray absorptiometry in” for “water. To analyze”, “the last week” for “the effects of WHS on blood triglyceride and blood cholesterol, a hematological-biochemical test”, “the animal test. […]” for “the WHS-administered group with induction of obesity was performed using a biochemical analyzer (AU480 Chemistry Analyzer, Beckman coulter, Calif., USA).”

O=C1OC(c2ccc(O)cc2)Cc2cccc(O)c21 (centres unmarked) [HG, 8-hydroxy-3-(4-hydroxyphenyl)-3,4-dihydroisochromen-1-one]
amount of phosphorylated AMPK protein (AMPK): increased | adipocyte size (white adipocytes): reduced

CCCCCCCCCCC[C@@H](C[C@@H]1OC(=O)[C@H]1CCCCCC)OC(=O)[C@H](CC(C)C)NC=O [Orlistat, orlistat]
CHOL [1]: 115.63 mg/dL | HDL [1]: 83.70 mg/dL | LDL [1]: 8.60 mg/dL | TG [1]: 76.40 mg/dL | changes in the body weight ([2]; oral administration at the same time with induction of obesity (12 weeks) or after induction of obesity (10 weeks), FIGS. 4 and 5): body weight-reducing effects were observed | body fat (dual-energy X-ray absorptiometry, fat weight) ([2]; oral administration at the same time with or after induction of obesity, FIGS. 6, 7, 8, and 9): decreased
